Data: paper PMC9127750, “Structure-based design of CDC42 effector interaction inhibitors for the treatment of cancer” (Cell reports, 2022)
Where “and” joins values, the source holds several entries; their conditions need not be identical. Equal values may be shown once.

Test system: WM3248 melanoma cells, 486 antibodies
Assay: Reverse phase protein arrays (RPPA)
Type: cell-based, Human
Details: 20 uM, single replicates
Excerpt: Pellets were snap frozen in liquid nitrogen and shipped to MD Anderson Cancer Center core RPPA facility for RPPA analysis (Table S5). Three biological replicates for each sample were generated.
Nomenclatures on the RPPA heatmaps: name_of_antibody.species_of_antibody.status_of_antibody. V - antibody validated; C - validation of antibody in progress; Q - antibody nonspecific; E – under evaluation; antibodies raised in M - mouse, G - goat, R - rabbit, or T - rat.

Structure (SMILES): CN(C)c1cccc(Nc2cc(-c3ccccc3)nc(C3CCNCC3)n2)c1 [ARN22089, N1,N1-dimethyl-N3-(6-phenyl-2-(piperidin-4-yl)pyrimidin-4-yl)benzene-1,3-diamine]
- RPPA PYGB.R.V: 1.097 and 1.103
- RPPA PYGM.M.C: 0.934 and 0.932 and 1.083
- RPPA Patched.R.C: 0.965 and 1.140 and 1.132
- RPPA Paxillin.R.C: 0.641 and 0.823 and 1.018
- RPPA Pdcd4.R.C: 0.925 and 0.993 and 1.052
- RPPA Porin.M.V: 1.104 and 0.957
- RPPA Puma.R.C: 0.983 and 0.942 and 1.107
- RPPA Pyk2_pY402.R.C: 0.954 and 1.153 and 1.099
- RPPA RBM15.R.V: 1.017 and 0.937 and 1.032
- RPPA RIP3.R.C: 0.931 and 0.981
- RPPA RIP.R.C: 0.915 and 1.063
- RPPA RPA32.R.V: 1.148 and 1.033 and 1.052
- RPPA RPA32_pS4_S8.R.C: 2.002 and 1.599 and 0.993
- RPPA RRM1.R.C: 0.824 and 0.941
- RPPA RRM2.R.C: 0.754 and 0.881 and 1.132
- RPPA RSK1.R.V: 0.828 and 0.819
- RPPA RSK.R.C: 1.012 and 0.889 and 1.017
- RPPA Rab11.R.C: 1.004 and 1.130
- RPPA Rab25.R.V: 0.958 and 1.084
- RPPA Rad17_pS645.R.V: 0.998 and 1.234 and 0.987
- RPPA Rad23A.R.C: 0.881 and 0.793 and 1.163
- RPPA Rad50.R.V: 1.028
- RPPA Rad51.R.C: 0.897 and 0.995 and 0.927
- RPPA Raptor.R.V: 0.847 and 1.006 and 1.049
- RPPA Rb.M.Q: 1.078 and 0.962 and 0.891
- RPPA Rb_pS807_S811.R.V: 0.920 and 0.719 and 1.081
- RPPA Rheb.M.C: 1.252 and 1.239
- RPPA Rictor.R.C: 0.967
- RPPA Rictor_pT1135.R.V: 1.012 and 1.102 and 1.115
- RPPA S6.M.V: 1.262 and 0.956 and 0.729
- RPPA S6_pS235_S236.R.V: 0.203 and 0.249 and 0.565
- RPPA S6_pS240_S244.R.V: 0.207 and 0.313 and 0.749
- RPPA SCD.M.V: 1.014 and 0.906 and 0.962
- RPPA SDHA.R.V: 1.002 and 1.200
- RPPA SF2.R.V: 1.008 and 0.980
- RPPA SFRP1.R.V: 1.055 and 0.981 and 0.922
- RPPA SGK1.R.V: 0.787 and 0.759 and 0.980
- RPPA SGK3.R.V: 1.047 and 1.079 and 0.942
- RPPA SHP2.R.V: 1.046 and 1.001 and 0.967
- RPPA SHP.2_pY542.R.C: 1.101
- RPPA SIRPαR.V: 1.429 and 0.758 and 0.756
- RPPA SLC1A5.R.C: 1.116 and 0.885 and 1.238
- RPPA SOD1.M.V: 0.930 and 1.026 and 0.944
- RPPA SOD2.R.V: 1.210 and 1.153 and 0.970
- RPPA SOX7.R.V: 1.129 and 1.097 and 1.010
- RPPA STING.R.V: 1.022 and 0.890 and 0.979
- RPPA Shc_pY317.R.C: 0.878 and 1.001 and 1.156
- RPPA Slfn11.G.C: 1.081 and 0.905 and 0.999
- RPPA Smac.M.Q: 1.032 and 0.944 and 0.954
- RPPA Smad1.R.V: 0.952 and 1.150 and 1.141
- RPPA Smad3.R.V: 1.122 and 1.116
- RPPA Smad4.R.V: 1.439 and 1.061 and 0.837
- RPPA Snail.M.Q: 0.766 and 0.784 and 0.712
- RPPA Sox2.R.V: 1.214 and 1.389
- RPPA Sox17.R.V: 0.937 and 0.923
- RPPA Src.M.V: 0.956 and 1.011 and 0.918
- RPPA Src_pY416.R.V: 0.994 and 1.111 and 0.997
- RPPA Src_pY527.R.V: 1.022 and 1.387 and 1.151
- RPPA Stat1_pY701.R.V: 1.097 and 1.029 and 0.986
- RPPA Stat3.R.C: 0.851 and 0.986 and 1.101
- RPPA Stat3_pY705.R.C: 1.728 and 1.194 and 0.922
- RPPA Stat5a.R.V: 0.903 and 1.373 and 1.278
- RPPA Stathmin.1.R.V: 0.916 and 0.858 and 0.997
- RPPA Syk.M.V: 0.934 and 1.057 and 0.933
- RPPA Synaptophysin.R.C: 1.153 and 0.998 and 0.965
- RPPA TAZ.R.V: 0.631 and 0.534 and 0.991
- RPPA TEAD.R.C: 0.716 and 1.191
- RPPA TFAM.R.V: 0.999 and 0.944 and 0.992
- RPPA TFRC.R.V: 0.895 and 0.844 and 1.062
- RPPA TIGAR.R.V: 1.012 and 1.022 and 1.077
- RPPA TRAP1.M.V: 0.979 and 0.864 and 0.990
- RPPA TRIM24.R.C: 1.117 and 0.958
- RPPA TRIM25.R.C: 0.754 and 0.868 and 1.058
- RPPA TRIP13.R.V: 1.019 and 0.950 and 0.966
- RPPA Tau.M.C: 1.147 and 1.195 and 0.925
- RPPA Transglutaminase.M.V: 0.881 and 1.342 and 1.747
- RPPA level HLA.DQA1.R.V: 1.062 and 1.076 and 0.920
- RPPA level HLA.DR.DP.DQ.DX.R.C: 1.376 and 1.011 and 0.963
- RPPA level HMHA1.R.V: 1.204
- RPPA level HNRNPK.R.V: 1.033 and 1.100
- RPPA level HSP27.M.C: 0.818 and 0.879 and 0.896
- RPPA level HSP27_pS82.R.V: 0.857 and 1.102 and 1.157
